From patent US9708314B2, “Heterocyclic amide compound” (NISSAN CHEMICAL INDUSTRIES, LTD., priority 2013, dated 2017)

How the values were obtained:
Type in all cases: in vivo
[1] = tested on: Echinochloa crus-galli var. crus-galli; test: Test Example 3: herbicidal effect by application to foliage (Wagner pot, water depth 0.1-0.5 cm); conditions: Nineteenth Table; for H (herbicidal effect grade): application to foliage, application herbicide amount 320 g/ha; for H (Echinochloa crus-galli var. crus-galli) herbicidal ratio grade: application herbicide amount 400 g/ha
Procedure, shortened: (§1)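 Visual 0–5 rating of herbicidal ratio, taken 3 weeks after foliar spray of a diluted emulsion formulation at rates expressed as g/ha. Plants had been sown in alluvial soil under 0.1–0.5 cm water and grown 14 days at 25–30 °C under glass before application.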

Cyperus difformis = test: as above; conditions: Nineteenth Table; application to foliage; application herbicide amount 320 g/ha
Procedure, shortened: as §1

Leptochloa chinensis = test: as above; conditions: Nineteenth Table; for D (herbicidal effect grade): application to foliage, application herbicide amount 320 g/ha; for D (Leptochloa chinensis) herbicidal ratio grade: application herbicide amount 400 g/ha
Procedure, shortened: as §1

[2] = tested on: Echinochloa crus-galli var. crus-galli; test: Test Example 4: herbicidal effect by application to foliage (diluvial soil, plastic box); conditions: for H: Application herbicide amount 320 g/ha; for H (Echinochloa crus-galli var. crus-galli) herbicidal effect: application to foliage, application herbicide amount 320 g/ha
Procedure, shortened: (§2)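 Seeds sown in sterilized diluvial soil, covered ~1.5 cm, grown 14 days in greenhouse at 25° C. to 30° C. Emulsion formulation diluted in water to set rate (g/ha) and sprayed onto stems and leaves. Effect scored visually 3 weeks later on 0–5 scale (5 = ≥90% herbicidal ratio, 0 = ≤5%).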

Avena fatua = test: as above; conditions: for I: Application herbicide amount 320 g/ha; for I (Avena fatua) herbicidal effect: application to foliage, application herbicide amount 320 g/ha
Procedure, shortened: as §2

Galium spurium = test: as above; conditions: for Q: Application herbicide amount 320 g/ha; for Q (Galium spurium) herbicidal effect: application to foliage, application herbicide amount 320 g/ha
Procedure, shortened: as §2

Setaria viridis = test: as above; conditions: for G: Application herbicide amount 320 g/ha; for G (Setaria viridis) herbicidal effect: application to foliage, application herbicide amount 320 g/ha
Procedure, shortened: as §2

Lolium multiflorum Lam. = test: as above; conditions: for K: Application herbicide amount 320 g/ha; for K (Lolium multiflorum Lam.) herbicidal effect: application to foliage, application herbicide amount 320 g/ha
Procedure, shortened: as §2

Apera spica-venti. = test: as above; conditions: for L: Application herbicide amount 320 g/ha; for L (Apera spica-venti.) herbicidal effect: application to foliage, application herbicide amount 320 g/ha
Procedure, shortened: as §2

Abutilon theophrasti = test: as above; conditions: for M: Application herbicide amount 320 g/ha; for M (Abutilon theophrasti) herbicidal effect: application to foliage, application herbicide amount 320 g/ha
Procedure, shortened: as §2

Alopecurus myosuroides = test: as above; conditions: for J: Application herbicide amount 320 g/ha; for J (Alopecurus myosuroides) herbicidal effect: application to foliage, application herbicide amount 320 g/ha
Procedure, shortened: as §2

Chenopodium album = test: as above; conditions: for O: Application herbicide amount 320 g/ha; for O (Chenopodium album) herbicidal effect: application to foliage, application herbicide amount 320 g/ha
Procedure, shortened: as §2

Digitaria ciliaris = test: as above; conditions: for F: Application herbicide amount 320 g/ha; for F (Digitaria ciliaris) herbicidal effect: application to foliage, application herbicide amount 320 g/ha
Procedure, shortened: as §2

Veronica persica = test: as above; conditions: application to foliage, application herbicide amount 320 g/ha
Procedure, shortened: as §2

| Structure (SMILES) | H (herbicidal effect grade) [1] | E (herbicidal effect grade) (Cyperus difformis) | D (herbicidal effect grade) (Leptochloa chinensis) | H [2] | I (Avena fatua) | Q (Galium spurium) | G (Setaria viridis) | K (Lolium multiflorum Lam.) | L (Apera spica-venti.) | M (Abutilon theophrasti) | J (Alopecurus myosuroides) | O (Chenopodium album) | F (Digitaria ciliaris) | other results |
| --- | --- | --- | --- | --- | --- | --- | --- | --- | --- | --- | --- | --- | --- | --- |
| COc1cc(OC)cc(-c2nnc3c(C(=O)Nc4nnc(C)o4)ccc(C(F)(F)F)n23)c1 [1-070] | 4 (Herbicidal ratio of 70% or more and less than 90%) | 5 (Herbicidal ratio of 90% or more (almost completely withered)) | 5 (Herbicidal ratio of 90% or more (almost completely withered)) | 5 (Herbicidal ratio of 90% or more (almost completely withered)) | 1 (Herbicidal ratio of 5% or more and less than 20%) | 3 (Herbicidal ratio of 40% or more and less than 70%) | 4 (Herbicidal ratio of 70% or more and less than 90%) | 0 (Herbicidal ratio of 5% or less (almost no effect)) | 0 (Herbicidal ratio of 5% or less (almost no effect)) | 4 (Herbicidal ratio of 70% or more and less than 90%) | 0 (Herbicidal ratio of 5% or less (almost no effect)) | 5 (Herbicidal ratio of 90% or more (almost completely withered)) | 4 (Herbicidal ratio of 70% or more and less than 90%) |  |
| Cc1nnc(NC(=O)c2ccc(C(F)(F)F)n3c(C)nnc23)o1 [1-002] |  |  |  |  |  |  |  |  |  |  |  |  |  | H (Echinochloa crus-galli var. crus-galli) herbicidal ratio grade [1]: 4 (Herbicidal ratio of 70% or more and less than 90%); D (Leptochloa chinensis) herbicidal ratio grade (Leptochloa chinensis): 4 (Herbicidal ratio of 70% or more and less than 90%); H (Echinochloa crus-galli var. crus-galli) herbicidal effect [2]: 5 (Herbicidal ratio of 90% or more (almost completely withered)); I (Avena fatua) herbicidal effect (Avena fatua): 3 (Herbicidal ratio of 40% or more and less than 70%); Q (Galium spurium) herbicidal effect (Galium spurium): 4 (Herbicidal ratio of 70% or more and less than 90%); G (Setaria viridis) herbicidal effect (Setaria viridis): 2 (Herbicidal ratio of 20% or more and less than 40%); K (Lolium multiflorum Lam.) herbicidal effect (Lolium multiflorum Lam.): 2 (Herbicidal ratio of 20% or more and less than 40%); L (Apera spica-venti.) herbicidal effect (Apera spica-venti.): 1 (Herbicidal ratio of 5% or more and less than 20%); M (Abutilon theophrasti) herbicidal effect (Abutilon theophrasti): 3 (Herbicidal ratio of 40% or more and less than 70%); J (Alopecurus myosuroides) herbicidal effect (Alopecurus myosuroides): 1 (Herbicidal ratio of 5% or more and less than 20%); O (Chenopodium album) herbicidal effect (Chenopodium album): 5 (Herbicidal ratio of 90% or more (almost completely withered)); F (Digitaria ciliaris) herbicidal effect (Digitaria ciliaris): 4 (Herbicidal ratio of 70% or more and less than 90%) |
| COc1ccc(Cc2nnc3c(C(=O)Nc4nnc(C)o4)ccc(C(F)(F)F)n23)cc1 [1-069] | 5 (Herbicidal ratio of 90% or more (almost completely withered)) | 5 (Herbicidal ratio of 90% or more (almost completely withered)) | 5 (Herbicidal ratio of 90% or more (almost completely withered)) | 5 (Herbicidal ratio of 90% or more (almost completely withered)) | 2 (Herbicidal ratio of 20% or more and less than 40%) | 3 (Herbicidal ratio of 40% or more and less than 70%) | 5 (Herbicidal ratio of 90% or more (almost completely withered)) | 2 (Herbicidal ratio of 20% or more and less than 40%) | 4 (Herbicidal ratio of 70% or more and less than 90%) | 3 (Herbicidal ratio of 40% or more and less than 70%) | 2 (Herbicidal ratio of 20% or more and less than 40%) | 5 (Herbicidal ratio of 90% or more (almost completely withered)) | 5 (Herbicidal ratio of 90% or more (almost completely withered)) |  |
| Cc1nnc(NC(=O)c2ccc(C(F)(F)F)n3c(-c4ccccc4)nnc23)o1 [1-012] |  |  |  |  |  |  |  |  |  |  |  |  |  | H (Echinochloa crus-galli var. crus-galli) herbicidal ratio grade [1]: 3 (Herbicidal ratio of 40% or more and less than 70%); D (Leptochloa chinensis) herbicidal ratio grade (Leptochloa chinensis): 5 (Herbicidal ratio of 90% or more (almost completely withered)); H (Echinochloa crus-galli var. crus-galli) herbicidal effect [2]: 4 (Herbicidal ratio of 70% or more and less than 90%); I (Avena fatua) herbicidal effect (Avena fatua): 0 (Herbicidal ratio of 5% or less (almost no effect)); Q (Galium spurium) herbicidal effect (Galium spurium): 2 (Herbicidal ratio of 20% or more and less than 40%); G (Setaria viridis) herbicidal effect (Setaria viridis): 4 (Herbicidal ratio of 70% or more and less than 90%); K (Lolium multiflorum Lam.) herbicidal effect (Lolium multiflorum Lam.): 1 (Herbicidal ratio of 5% or more and less than 20%); R (Veronica persica) herbicidal effect (Veronica persica): 4 (Herbicidal ratio of 70% or more and less than 90%); L (Apera spica-venti.) herbicidal effect (Apera spica-venti.): 1 (Herbicidal ratio of 5% or more and less than 20%); M (Abutilon theophrasti) herbicidal effect (Abutilon theophrasti): 3 (Herbicidal ratio of 40% or more and less than 70%); J (Alopecurus myosuroides) herbicidal effect (Alopecurus myosuroides): 0 (Herbicidal ratio of 5% or less (almost no effect)); O (Chenopodium album) herbicidal effect (Chenopodium album): 5 (Herbicidal ratio of 90% or more (almost completely withered)); F (Digitaria ciliaris) herbicidal effect (Digitaria ciliaris): 3 (Herbicidal ratio of 40% or more and less than 70%) |
| Cc1nnc(NC(=O)c2ccc(C(F)(F)F)n3c(C(C)[S+](C)[O-])nnc23)o1 (stereo not shown) [1-079] | 5 (Herbicidal ratio of 90% or more (almost completely withered)) | 5 (Herbicidal ratio of 90% or more (almost completely withered)) | 5 (Herbicidal ratio of 90% or more (almost completely withered)) | 5 (Herbicidal ratio of 90% or more (almost completely withered)) | 4 (Herbicidal ratio of 70% or more and less than 90%) | 4 (Herbicidal ratio of 70% or more and less than 90%) | 5 (Herbicidal ratio of 90% or more (almost completely withered)) | 3 (Herbicidal ratio of 40% or more and less than 70%) |  | 5 (Herbicidal ratio of 90% or more (almost completely withered)) | 2 (Herbicidal ratio of 20% or more and less than 40%) | 5 (Herbicidal ratio of 90% or more (almost completely withered)) | 5 (Herbicidal ratio of 90% or more (almost completely withered)) |  |
| COCC[S+]([O-])c1nnc2c(C(=O)Nc3nnc(C)o3)ccc(C(F)(F)F)n12 (stereo not shown) [1-073] | 5 (Herbicidal ratio of 90% or more (almost completely withered)) | 5 (Herbicidal ratio of 90% or more (almost completely withered)) | 5 (Herbicidal ratio of 90% or more (almost completely withered)) | 5 (Herbicidal ratio of 90% or more (almost completely withered)) | 3 (Herbicidal ratio of 40% or more and less than 70%) | 2 (Herbicidal ratio of 20% or more and less than 40%) | 5 (Herbicidal ratio of 90% or more (almost completely withered)) | 3 (Herbicidal ratio of 40% or more and less than 70%) | 3 (Herbicidal ratio of 40% or more and less than 70%) | 5 (Herbicidal ratio of 90% or more (almost completely withered)) | 2 (Herbicidal ratio of 20% or more and less than 40%) | 5 (Herbicidal ratio of 90% or more (almost completely withered)) | 5 (Herbicidal ratio of 90% or more (almost completely withered)) |  |
| CSC(C)c1nnc2c(C(=O)Nc3nnc(C)o3)ccc(C(F)(F)F)n12 (stereo not shown) [1-078] | 5 (Herbicidal ratio of 90% or more (almost completely withered)) | 5 (Herbicidal ratio of 90% or more (almost completely withered)) | 5 (Herbicidal ratio of 90% or more (almost completely withered)) | 5 (Herbicidal ratio of 90% or more (almost completely withered)) | 4 (Herbicidal ratio of 70% or more and less than 90%) |  | 5 (Herbicidal ratio of 90% or more (almost completely withered)) | 3 (Herbicidal ratio of 40% or more and less than 70%) | 4 (Herbicidal ratio of 70% or more and less than 90%) | 5 (Herbicidal ratio of 90% or more (almost completely withered)) | 3 (Herbicidal ratio of 40% or more and less than 70%) | 5 (Herbicidal ratio of 90% or more (almost completely withered)) | 5 (Herbicidal ratio of 90% or more (almost completely withered)) |  |
